Laboratory results from PubChem BioAssay (NCI).
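Exposure lasted 48 hours, with cells grown in 96-well plates and compounds tested at five concentrations. TGI: total growth inhibition.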

Key:
Assay in all cases: growth of human tumour cells (NCI), 48 h
HT29 colon = tested on: HT29 colon
SF-268 CNS = tested on: SF-268 CNS
T-47D breast = tested on: T-47D breast
NCI-H23 lung = tested on: NCI-H23 lung
OVCAR-5 ovarian = tested on: OVCAR-5 ovarian
SR leukemia = tested on: SR leukemia
KM12 colon = tested on: KM12 colon
M14 melanoma = tested on: M14 melanoma
DU-145 prostate = tested on: DU-145 prostate
NCI/ADR-RES ovarian = tested on: NCI/ADR-RES ovarian
SN12C renal = tested on: SN12C renal
OVCAR-3 ovarian = tested on: OVCAR-3 ovarian
UO-31 renal = tested on: UO-31 renal
RXF 393 renal = tested on: RXF 393 renal
OVCAR-8 ovarian = tested on: OVCAR-8 ovarian
SK-MEL-2 melanoma = tested on: SK-MEL-2 melanoma
HS 578T breast = tested on: HS 578T breast
COLO 205 colon = tested on: COLO 205 colon
TK-10 renal = tested on: TK-10 renal
786-0 renal = tested on: 786-0 renal
MDA-N = tested on: MDA-N
PC-3 prostate = tested on: PC-3 prostate
NCI-H460 lung = tested on: NCI-H460 lung
NCI-H522 lung = tested on: NCI-H522 lung
ACHN renal = tested on: ACHN renal
SW-620 colon = tested on: SW-620 colon
NCI-H226 lung = tested on: NCI-H226 lung
HOP-62 NSCLC = tested on: HOP-62 NSCLC
U251 CNS = tested on: U251 CNS
HCT-15 colon = tested on: HCT-15 colon
A498 renal = tested on: A498 renal
MDA-MB-231 breast = tested on: MDA-MB-231 breast
UACC-62 melanoma = tested on: UACC-62 melanoma
SF-539 CNS = tested on: SF-539 CNS
MCF7 breast = tested on: MCF7 breast
SF-295 CNS = tested on: SF-295 CNS
A549 NSCLC = tested on: A549 NSCLC
UACC-257 melanoma = tested on: UACC-257 melanoma
SK-MEL-5 melanoma = tested on: SK-MEL-5 melanoma
MOLT-4 leukemia = tested on: MOLT-4 leukemia
IGROV1 ovarian = tested on: IGROV1 ovarian
RPMI-8226 leukemia = tested on: RPMI-8226 leukemia
MDA-MB-435 = tested on: MDA-MB-435
CAKI-1 renal = tested on: CAKI-1 renal
SNB-19 CNS = tested on: SNB-19 CNS
HCT-116 colon = tested on: HCT-116 colon
K-562 leukemia = tested on: K-562 leukemia
CCRF-CEM leukemia = tested on: CCRF-CEM leukemia
HL-60(TB) leukemia = tested on: HL-60(TB) leukemia
SK-OV-3 ovarian = tested on: SK-OV-3 ovarian
LOX IMVI melanoma = tested on: LOX IMVI melanoma
HCC-2998 colon = tested on: HCC-2998 colon
EKVX NSCLC = tested on: EKVX NSCLC
MALME-3M melanoma = tested on: MALME-3M melanoma
OVCAR-4 ovarian = tested on: OVCAR-4 ovarian
HOP-92 NSCLC = tested on: HOP-92 NSCLC
SK-MEL-28 melanoma = tested on: SK-MEL-28 melanoma

**Q.** What does the source list for COc1ccc(C2C=C(c3ccccc3)Nc3nnnn32)cc1 (configuration not stated)?
**A.** TGI (HT29 colon): 34.2 µM; TGI (SF-268 CNS): > 100 µM; TGI (T-47D breast): 60.4 µM; TGI (NCI-H23 lung): > 100 µM; TGI (OVCAR-5 ovarian): > 100 µM; TGI (SR leukemia): > 100 µM; TGI (KM12 colon): 34.8 µM; TGI (M14 melanoma): > 100 µM; TGI (DU-145 prostate): > 100 µM; TGI (NCI/ADR-RES ovarian): > 100 µM; TGI (SN12C renal): > 100 µM; TGI (OVCAR-3 ovarian): 77.8 µM; TGI (UO-31 renal): > 100 µM; TGI (RXF 393 renal): 50.9 µM; TGI (OVCAR-8 ovarian): > 100 µM; TGI (SK-MEL-2 melanoma): > 100 µM; TGI (HS 578T breast): > 100 µM; TGI (COLO 205 colon): > 100 µM; TGI (TK-10 renal): 29.8 µM; TGI (786-0 renal): 91.1 µM; TGI (MDA-N): > 100 µM; TGI (PC-3 prostate): > 100 µM; TGI (NCI-H460 lung): > 100 µM; TGI (NCI-H522 lung): 57.7 µM; TGI (ACHN renal): 60.3 µM; TGI (SW-620 colon): > 100 µM; TGI (NCI-H226 lung): > 100 µM; TGI (HOP-62 NSCLC): 66.8 µM; TGI (U251 CNS): 56.1 µM; TGI (HCT-15 colon): > 100 µM; TGI (A498 renal): > 100 µM; TGI (MDA-MB-231 breast): 90.5 µM; TGI (UACC-62 melanoma): > 100 µM; TGI (SF-539 CNS): 53.1 µM; TGI (MCF7 breast): 84.4 µM; TGI (SF-295 CNS): 88.3 µM; TGI (A549 NSCLC): > 100 µM; TGI (UACC-257 melanoma): > 100 µM; TGI (SK-MEL-5 melanoma): > 100 µM; TGI (MOLT-4 leukemia): > 100 µM; TGI (IGROV1 ovarian): > 100 µM; TGI (RPMI-8226 leukemia): 80.2 µM; TGI (MDA-MB-435): > 100 µM; TGI (CAKI-1 renal): > 100 µM; TGI (SNB-19 CNS): > 100 µM; TGI (HCT-116 colon): 29.3 µM; TGI (K-562 leukemia): > 100 µM; TGI (CCRF-CEM leukemia): > 100 µM; TGI (HL-60(TB) leukemia): > 100 µM; TGI (SK-OV-3 ovarian): 93 µM; TGI (LOX IMVI melanoma): > 100 µM

**Q.** Which TGI (HT29 colon) does the source give for CCOC(=O)C(NC(=O)CC(C)C)(NC(C)C)C(F)(F)F (configuration not stated) here?
**A.** Its TGI is > 100 µM.

**Q.** And the TGI (SF-268 CNS)?
**A.** Its TGI is > 100 µM.

**Q.** And the TGI (T-47D breast)?
**A.** Its TGI is > 100 µM.

**Q.** And the TGI (NCI-H23 lung)?
**A.** The TGI was > 100 µM.

**Q.** And the TGI (HCC-2998 colon)?
**A.** Its TGI is > 100 µM.

**Q.** And the TGI (OVCAR-5 ovarian)?
**A.** Its TGI is > 100 µM.

**Q.** And the TGI (SR leukemia)?
**A.** Its TGI is > 100 µM.

**Q.** What about the TGI (KM12 colon) of the same molecule?
**A.** The TGI was > 100 µM.

**Q.** And the TGI (M14 melanoma)?
**A.** The TGI was > 100 µM.

**Q.** And the TGI (DU-145 prostate)?
**A.** Its TGI is > 100 µM.

**Q.** What about the TGI (NCI/ADR-RES ovarian) of the same molecule?
**A.** Its TGI is > 100 µM.

**Q.** And the TGI (SN12C renal)?
**A.** Its TGI is > 100 µM.

**Q.** And the TGI (EKVX NSCLC)?
**A.** The TGI was > 100 µM.

**Q.** What about the TGI (OVCAR-3 ovarian) of the same molecule?
**A.** The TGI was > 100 µM.

**Q.** And the TGI (UO-31 renal)?
**A.** Its TGI is > 100 µM.

**Q.** And the TGI (MALME-3M melanoma)?
**A.** The TGI was > 100 µM.

**Q.** And the TGI (OVCAR-4 ovarian)?
**A.** Its TGI is > 100 µM.

**Q.** And the TGI (RXF 393 renal)?
**A.** Its TGI is > 100 µM.

**Q.** What about the TGI (OVCAR-8 ovarian) of the same molecule?
**A.** The TGI was > 100 µM.

**Q.** And the TGI (SK-MEL-2 melanoma)?
**A.** The TGI was > 100 µM.

**Q.** What about the TGI (HS 578T breast) of the same molecule?
**A.** The TGI was > 100 µM.

**Q.** What about the TGI (COLO 205 colon) of the same molecule?
**A.** Its TGI is > 100 µM.

**Q.** What about the TGI (TK-10 renal) of the same molecule?
**A.** Its TGI is > 100 µM.

**Q.** What about the TGI (786-0 renal) of the same molecule?
**A.** Its TGI is > 100 µM.

**Q.** What about the TGI (MDA-N) of the same molecule?
**A.** Its TGI is > 100 µM.

**Q.** And the TGI (PC-3 prostate)?
**A.** Its TGI is > 100 µM.

**Q.** What about the TGI (NCI-H460 lung) of the same molecule?
**A.** The TGI was > 100 µM.

**Q.** What about the TGI (NCI-H522 lung) of the same molecule?
**A.** Its TGI is > 100 µM.

**Q.** And the TGI (ACHN renal)?
**A.** The TGI was > 100 µM.

**Q.** And the TGI (SW-620 colon)?
**A.** The TGI was > 100 µM.

**Q.** What about the TGI (NCI-H226 lung) of the same molecule?
**A.** Its TGI is > 100 µM.

**Q.** And the TGI (HOP-62 NSCLC)?
**A.** The TGI was > 100 µM.

**Q.** And the TGI (U251 CNS)?
**A.** The TGI was > 100 µM.

**Q.** And the TGI (HCT-15 colon)?
**A.** Its TGI is > 100 µM.

**Q.** What about the TGI (A498 renal) of the same molecule?
**A.** The TGI was > 100 µM.

**Q.** And the TGI (MDA-MB-231 breast)?
**A.** Its TGI is > 100 µM.

**Q.** And the TGI (SF-539 CNS)?
**A.** Its TGI is > 100 µM.

**Q.** What about the TGI (MCF7 breast) of the same molecule?
**A.** Its TGI is > 100 µM.

**Q.** And the TGI (SF-295 CNS)?
**A.** The TGI was > 100 µM.

**Q.** What about the TGI (HOP-92 NSCLC) of the same molecule?
**A.** The TGI was > 100 µM.

**Q.** And the TGI (A549 NSCLC)?
**A.** Its TGI is > 100 µM.

**Q.** What about the TGI (UACC-257 melanoma) of the same molecule?
**A.** Its TGI is > 100 µM.

**Q.** What about the TGI (SK-MEL-5 melanoma) of the same molecule?
**A.** The TGI was > 100 µM.

**Q.** What about the TGI (MOLT-4 leukemia) of the same molecule?
**A.** The TGI was > 100 µM.

**Q.** And the TGI (IGROV1 ovarian)?
**A.** The TGI was > 100 µM.

**Q.** What about the TGI (RPMI-8226 leukemia) of the same molecule?
**A.** The TGI was > 100 µM.

**Q.** And the TGI (MDA-MB-435)?
**A.** Its TGI is > 100 µM.

**Q.** And the TGI (CAKI-1 renal)?
**A.** The TGI was > 100 µM.

**Q.** What about the TGI (SNB-19 CNS) of the same molecule?
**A.** Its TGI is > 100 µM.

**Q.** And the TGI (HCT-116 colon)?
**A.** Its TGI is > 100 µM.

**Q.** What about the TGI (K-562 leukemia) of the same molecule?
**A.** Its TGI is > 100 µM.

**Q.** And the TGI (CCRF-CEM leukemia)?
**A.** The TGI was > 100 µM.

**Q.** What about the TGI (HL-60(TB) leukemia) of the same molecule?
**A.** Its TGI is > 100 µM.

**Q.** What about the TGI (SK-OV-3 ovarian) of the same molecule?
**A.** Its TGI is > 100 µM.

**Q.** What about the TGI (SK-MEL-28 melanoma) of the same molecule?
**A.** The TGI was > 100 µM.

**Q.** What about the TGI (LOX IMVI melanoma) of the same molecule?
**A.** The TGI was > 100 µM.
